US4918056A, “2-substituted arabinopyranosyl nucleosides and nucleotides” (priority 1986, dated 1990)

Tested on: L1210 leukemia cells
Assay: Reversal of L1210 growth inhibition by salvageable nucleosides
Assay type: cell-based, mouse
Procedure: Reversal studies were conducted as follows: […], 85027 or 5-FdUr were added at various concentrations near their IC50 to cultures of L1210 leukemia cells, maintained in PRMI 1640 medium supplemented with 10% fetal calf serum and 16mM HEPES, pH 7.2 as described in Example 9. Nucleosides including thymidine (1×10^-5 M), uridine (1×10^-4 M), deoxyuridine ([…]), adenosine (1×10^-4 M), or guanosine (1×10^-5 M) were also added to identical drug (85024, 85027 or 5-FdUr) containing L1210 leukemia cultures. Cellular growth inhibition or its prevention by the addition of salvageable nucleosides was determined 48 hours later by counting cells using an electronic Coulter Counter.

COC1OC[C@@H](OC(C)=O)[C@@H](OC(C)=O)[C@]1(F)n1ccc(=O)[nH]c1=O (stereo partly drawn) [compound 85024, Methyl 3,4-di-0-acetyl-2-deoxy-2(R)-[1H,3H-2,4-dioxo-1-pyrimidinyl]-2-fluoro-α-D-arabinopyranoside [5a] and methyl 3,4-di-0-acetyl-2-deoxy-2(R)-[1H,3H-2,4-dioxo-1-pyrimidinyl]-2-fluoro-β-D-arabinopyranoside [6a]]
reversal of cellular cytotoxicity by exogenous nucleosides (exogenous thymidine, uridine or deoxyuridine, tissue culture): not reversed by exogenous thymidine, uridine or deoxyuridine
effect of added nucleoside on the IC50 (thymidine (1×10^-5 M), uridine (1×10^-4 M) or deoxyuridine (1×10^-5 M)): < 10%
